ChEMBL document CHEMBL3286123, “Aliphatic phenolic ethers from Trichobotrys effusa” (2014)

system: A549; assay: Growth inhibition of human A549 cells after 48 hrs by SRB assay; format: functional; conditions: A549, 48 h

Q: Which GI50 does the source give for `C/C=C/C=C/C=C(\CO)[C@H](OCc1c(O)cccc1CCC)[C@H](C)O` here?
A: 25.6 µM

Q: For `C[C@@H]1C[C@H]2O[C@@H]2/C=C\C=C\C(=O)Cc2c(Cl)c(O)cc(O)c2C(=O)O1` [RADICICOL], which GI50 is on record?
A: 1.43 µM

Q: For `C/C=C/C=C/C=C(\C=O)C(OCc1c(O)cccc1CCC)C(C)=O` (stereo unspecified), which GI50 is on record?
A: 19.3 µM

Q: How did the GI50 turn out when `O=c1[nH]cc(F)c(=O)[nH]1` [FLUOROURACIL] was run?
A: 4.55 µM

Q: With `C/C=C/C=C/C=C1\CO[C@](C)(OC)[C@H]1OCc1c(O)cccc1CCC` as the compound, how does the GI50 read?
A: 24.3 µM

Q: With `C/C=C/C=C/C=C1\[C@H](OC)O[C@](C)(OC)[C@H]1OCc1c(O)cccc1CCC` as the compound, how does the GI50 read?
A: 16.2 µM
